Key:
Conditions in all cases: incubation time: 72 h
BT-474 [1] = assay: normalised response (% of control), CellTox Green; higher = less cell death (100 = DMSO, 0 = benzethonium chloride kill control)
In short: (§1)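 Compound was dispensed into 384-well plates at 5 concentrations in 10-fold steps spanning a 10,000-fold range specific to that compound. Breast cancer cell lines were added as 20 µl suspension and left for 72 h before CellTox Green fluorescence (485/520 nm) and then CellTiter-Glo luminescence, read after 10 min at room temperature. Each reported value is the normalised signal at one concentration, with 0.1 % DMSO set at 100 and a positive kill control at 0 on each plate.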

BT-549 [2] = assay: as above
In short: as §1

CAL-120 [3] = assay: as above
In short: as §1

CAL-148 [4] = assay: as above
In short: as §1

CAL-51 [5] = assay: as above
In short: as §1

CAL-85-1 [6] = assay: as above
In short: as §1

DU-4475 [7] = assay: as above
In short: as §1

HCC1143 [8] = assay: as above
In short: as §1

HCC1599 [9] = assay: as above
In short: as §1

HCC1937 [10] = assay: as above
In short: as §1

HDQ-P1 [11] = assay: as above
In short: as §1

Hs578T [12] = assay: as above
In short: as §1

MCF-10A [13] = assay: as above
In short: as §1

MDA-MB-231 [14] = assay: as above
In short: as §1

MDA-MB-436 [15] = assay: as above
In short: as §1

MDA-MB-453 [16] = assay: as above
In short: as §1

MDA-MB-468 [17] = assay: as above
In short: as §1

MFM-223 [18] = assay: as above
In short: as §1

BT-474 [19] = assay: normalised response (% of control), CellTiter-Glo; higher = more viable cells (100 = DMSO, 0 = benzethonium chloride kill control)
In short: as §1

BT-549 [20] = assay: as above
In short: as §1

CAL-120 [21] = assay: as above
In short: as §1

CAL-148 [22] = assay: as above
In short: as §1

CAL-51 [23] = assay: as above
In short: as §1

CAL-85-1 [24] = assay: as above
In short: as §1

DU-4475 [25] = assay: as above
In short: as §1

HCC1143 [26] = assay: as above
In short: as §1

HCC1599 [27] = assay: as above
In short: as §1

HCC1937 [28] = assay: as above
In short: as §1

HDQ-P1 [29] = assay: as above
In short: as §1

Hs578T [30] = assay: as above
In short: as §1

MCF-10A [31] = assay: as above
In short: as §1

MDA-MB-231 [32] = assay: as above
In short: as §1

MDA-MB-436 [33] = assay: as above
In short: as §1

MDA-MB-453 [34] = assay: as above
In short: as §1

MDA-MB-468 [35] = assay: as above
In short: as §1

MFM-223 [36] = assay: as above
In short: as §1

SK-BR-3 = assay: as above
In short: as §1

CCN(CC)CCCC(C)Nc1ccnc2cc(Cl)ccc12 (stereo not given) [Chloroquine] (10000 nM)
normalised response (BT-474 [1]): 35.4% | normalised response (BT-549 [2]): 93.2% | normalised response (CAL-120 [3]): -30.1% | normalised response (CAL-148 [4]): 35.5% | normalised response (CAL-51 [5]): 91.5% | normalised response (CAL-85-1 [6]): 93% | normalised response (DU-4475 [7]): 96.2% | normalised response (HCC1143 [8]): 110% | normalised response (HCC1599 [9]): 86.2% | normalised response (HCC1937 [10]): 91.5% | normalised response (HDQ-P1 [11]): 81.6% | normalised response (Hs578T [12]): 94.3% | normalised response (MCF-10A [13]): 95.2% | normalised response (MDA-MB-231 [14]): 50.4% | normalised response (MDA-MB-436 [15]): 59.4% | normalised response (MDA-MB-453 [16]): 62.1% | normalised response (MDA-MB-468 [17]): 119% | normalised response (MFM-223 [18]): 67.7% | normalised response (BT-474 [19]): 72.1% | normalised response (BT-549 [20]): 73.3% | normalised response (CAL-120 [21]): 50.6% | normalised response (CAL-148 [22]): 60.2% | normalised response (CAL-51 [23]): 51.7% | normalised response (CAL-85-1 [24]): 57.7% | normalised response (DU-4475 [25]): 80.1% | normalised response (HCC1143 [26]): 89.6% | normalised response (HCC1599 [27]): 65.3% | normalised response (HCC1937 [28]): 65.7% | normalised response (HDQ-P1 [29]): 86.2% | normalised response (Hs578T [30]): 97.4% | normalised response (MCF-10A [31]): 74.2% | normalised response (MDA-MB-231 [32]): 73.9% | normalised response (MDA-MB-436 [33]): 77.3% | normalised response (MDA-MB-453 [34]): 28.8% | normalised response (MDA-MB-468 [35]): 57.4% | normalised response (MFM-223 [36]): 62.9% | normalised response (SK-BR-3): 35.2%

CN(C)C(=N)NC(=N)N [Metformin] (10000 nM)
normalised response (BT-474 [1]): 95% | normalised response (BT-549 [2]): 76.2% | normalised response (CAL-120 [3]): 88.3% | normalised response (CAL-148 [4]): 97.9% | normalised response (CAL-51 [5]): 66.7% | normalised response (CAL-85-1 [6]): 98% | normalised response (DU-4475 [7]): 89.4% | normalised response (HCC1143 [8]): 72.2% | normalised response (HCC1599 [9]): 82.2% | normalised response (HCC1937 [10]): 66.8% | normalised response (HDQ-P1 [11]): 101% | normalised response (Hs578T [12]): 83.7% | normalised response (MCF-10A [13]): 103% | normalised response (MDA-MB-231 [14]): 90.4% | normalised response (MDA-MB-436 [15]): 55.5% | normalised response (MDA-MB-453 [16]): 80.9% | normalised response (MDA-MB-468 [17]): 79.5% | normalised response (MFM-223 [18]): 99.2% | normalised response (BT-474 [19]): 91% | normalised response (BT-549 [20]): 98.4% | normalised response (CAL-120 [21]): 106% | normalised response (CAL-148 [22]): 98.3% | normalised response (CAL-51 [23]): 75.2% | normalised response (CAL-85-1 [24]): 102% | normalised response (DU-4475 [25]): 79.5% | normalised response (HCC1143 [26]): 93.6% | normalised response (HCC1599 [27]): 108% | normalised response (HCC1937 [28]): 99.5% | normalised response (HDQ-P1 [29]): 97.2% | normalised response (Hs578T [30]): 98.9% | normalised response (MCF-10A [31]): 87.7% | normalised response (MDA-MB-231 [32]): 93.5% | normalised response (MDA-MB-436 [33]): 101% | normalised response (MDA-MB-453 [34]): 80.3% | normalised response (MDA-MB-468 [35]): 92.7% | normalised response (MFM-223 [36]): 92.4% | normalised response (SK-BR-3): 77.8%

O=[N+]([O-])c1ccc2c(c1)S(=O)(=O)C=C2 [Stattic] (5000 nM)
normalised response (BT-474 [1]): 12.7% | normalised response (BT-549 [2]): -67.2% | normalised response (CAL-120 [3]): 105% | normalised response (CAL-148 [4]): 51.2% | normalised response (CAL-51 [5]): -12.3% | normalised response (CAL-85-1 [6]): -36.1% | normalised response (DU-4475 [7]): 104% | normalised response (HCC1143 [8]): 118% | normalised response (HCC1599 [9]): 95.2% | normalised response (HCC1937 [10]): 28.6% | normalised response (HDQ-P1 [11]): 106% | normalised response (Hs578T [12]): -141% | normalised response (MDA-MB-231 [14]): 51.2% | normalised response (MDA-MB-436 [15]): 106% | normalised response (MDA-MB-453 [16]): 108% | normalised response (MDA-MB-468 [17]): -175% | normalised response (MFM-223 [18]): 4.35% | normalised response (BT-474 [19]): 68.9% | normalised response (BT-549 [20]): 0.47% | normalised response (CAL-120 [21]): 88.3% | normalised response (CAL-148 [22]): 46.4% | normalised response (CAL-51 [23]): 0.16% | normalised response (CAL-85-1 [24]): 1.59% | normalised response (DU-4475 [25]): 101% | normalised response (HCC1143 [26]): 93.1% | normalised response (HCC1599 [27]): 86.9% | normalised response (HCC1937 [28]): 22.3% | normalised response (HDQ-P1 [29]): 92.2% | normalised response (Hs578T [30]): 29.6% | normalised response (MCF-10A [31]): 105% | normalised response (MDA-MB-231 [32]): 30.9% | normalised response (MDA-MB-436 [33]): 75.7% | normalised response (MDA-MB-453 [34]): 45% | normalised response (MDA-MB-468 [35]): 2.23% | normalised response (MFM-223 [36]): 22.8% | normalised response (SK-BR-3): 80.9%
